Target: T1, mushroom tyrosinase (Agaricus bisporus, UniProt C7FF04)
T1 construct: gene PPO3
Test: cell-free mushroom tyrosinase assay with L-tyrosine, absorbance at […] nm, single concentration […]
Type: biochemical
Settings: read-out: % inhibition at 250 nM

T1 sequence (C7FF04 2-392): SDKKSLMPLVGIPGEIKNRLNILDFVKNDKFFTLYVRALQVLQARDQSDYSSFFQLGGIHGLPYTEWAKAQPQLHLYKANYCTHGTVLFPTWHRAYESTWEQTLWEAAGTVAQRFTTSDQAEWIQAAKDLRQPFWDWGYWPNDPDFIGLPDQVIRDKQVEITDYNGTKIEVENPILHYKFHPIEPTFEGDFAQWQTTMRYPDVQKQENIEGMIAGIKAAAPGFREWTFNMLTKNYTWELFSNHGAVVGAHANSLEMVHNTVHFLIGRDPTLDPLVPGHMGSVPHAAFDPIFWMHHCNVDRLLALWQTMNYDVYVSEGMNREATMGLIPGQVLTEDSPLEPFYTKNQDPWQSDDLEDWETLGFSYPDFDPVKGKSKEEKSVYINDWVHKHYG

NC(=S)Nc1ccccc1 [PTU, phenylthiourea] was tested, and the inhibition at 0.25 µM was 74.7%.
